Data as given in US20070105115A1, “Promoter of the human fatp5 gene and uses” (MERCK SANTE, priority 2003, published 2007).

What was measured:
FATP5 = test: Hepatic FATP5 expression (Northern blotting) in ZDF rats treated with LGD 1069; assay type: in vivo, rat; conditions: LGD 1069 in food 0.3-30 mg/kg/day for 50 days from age 7 weeks; Northern blot; FIG. 15
Description: Male diabetic fatty rats (Zucker diabetic fatty rats (ZDF rats)) are kept in an animal house with free access to food and water, the nyctohemeral rhythm being observed.
(§1) The compound LGD 1069 is added to the food at a dose of 0.3, 1.0, 3.0, 10 or 30 mg/kg/day and administered for 50 days as from the age of 7 weeks. 4 animals are fed without the addition of LGD 1069: 2 ZDF and 2 ZLC. The animals are fasted and sacrificed the next day. The tissues are collected and frozen immediately in liquid nitrogen.
The hepatic RNAs are extracted by the conventional technique derived from Chomczynski and Sacchi. The expression is analysed by Northern blotting with hybridization using a radioactive cDNA probe specific for FATP5.

ZDF rats = test: Reversal of the diabetic phenotype in the ZDF rat by an insulin sensitizer; assay type: in vivo; conditions: LGD 1069 in food 0.3-30 mg/kg/day for 50 days from age 7 weeks
Description: as §1, with “Male diabetic fatty rats (Zucker diabetic fatty rats (ZDF rats)) are kept in an animal house with free access to food and water, the nyctohemeral rhythm being observed. The compound” for “The compound”

C=C(c1ccc(C(=O)O)cc1)c1cc2c(cc1C)C(C)(C)CCC2(C)C [RXR agonist, bexarotene]
Negative regulation of the expression of FATP5 in the liver of ZDF rats compared with ZLC rats (FATP5): counteracted
development of diabetes (ZDF rats): reverses the development of diabetes
